How the values were obtained:
[1] = target: T1, purified LasB protein from P. aeruginosa (Pseudomonas aeruginosa, UniProt P14756); experiment: Fluorometric assay to determine Ki (Assay 1); assay type: biochemical; settings: Ki (μM) Assay 1, purified LasB, substrate Abz-Ala-Gly-Leu-Ala-p-Nitro-Benzyl-Amide 250 μM, Ki calculated from IC50; inhibitor 0.006 to 200 μM
T1 construct: purchased Merck or Charles River Laboratories
How it was run: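 Purified LasB (10 to 140 ng/ml) with 250 μM Abz-Ala-Gly-Leu-Ala-p-nitrobenzylamide in 50 mM Tris-HCl pH 7.4, 2.5 mM CaCl2, 0.01% Triton X100; hydrolysis read by fluorescence (Ex 340/Em 415 nm) over 30 min at 37° C. Inhibitor 2-fold series, 0.006–200 μM (Assay 1) or 0.0016–200 μM (Assay 2); IC50 converted to Ki via Ki=IC50/(1+[S]/Km), Km=214 μM.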

[2] = target: T2, LasB elastase activity in dialysed supernatant from P. aeruginosa strain PA01 (Pseudomonas aeruginosa, UniProt P14756); experiment: Elastin Congo Red assay to determine % inhibition (Assay 1); assay type: biochemical; settings: read-out: Elastin hydrolysis % inhibition @ 50/25 μM inhibitor concentration Assay 1
T2 construct: uses as source of enzyme dialysed supernatant from P. aeruginosa; endogenous in cells; host or cells: P. aeruginosa strain PA01 culture supernatant, filtered and dialysed
How it was run: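 Enzyme source: PA01 culture supernatant (19 h growth), filtered and dialysed into 50 mM Tris pH 7.4, 2.5 mM CaCl2. Mixed 1:1 with Elastin Congo Red (20 mg/mL) plus 0.01% Triton X-100 and compound (routinely 50 and 25 μM), 24 h at 37 °C shaking. Dye release at OD520 gives % inhibition versus DMSO.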

T2 sequence (P14756 198-498): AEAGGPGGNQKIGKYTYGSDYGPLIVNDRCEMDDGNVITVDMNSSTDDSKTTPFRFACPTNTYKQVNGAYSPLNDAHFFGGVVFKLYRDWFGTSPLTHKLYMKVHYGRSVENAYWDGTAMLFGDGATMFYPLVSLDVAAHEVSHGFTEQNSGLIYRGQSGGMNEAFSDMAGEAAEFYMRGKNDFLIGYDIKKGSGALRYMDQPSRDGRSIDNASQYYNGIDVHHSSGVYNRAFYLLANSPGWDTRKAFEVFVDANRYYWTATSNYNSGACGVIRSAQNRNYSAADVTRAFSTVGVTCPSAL
T1 sequence (P14756 198-498): as above

Row | Compound | Ki [1] | inhibition at 50 µM [2]
1 | O=C(O)CC1(C(=O)NCc2nc3ccc(N4CCNCC4)cc3s2)Cc2ccccc2C1 [Example 41, 2-[2-[(6-piperazin-1-yl-1,3-benzothiazol-2-yl)methylcarbamoyl]indan-2-yl]acetic acid] | 0.3 to 2 µM | 30 to 60%
2 | O=C(O)CC1(C(=O)NCc2nc3c(F)cccc3s2)Cc2ccccc2C1 [Example 60, 2-(2-(((4-fluorobenzo[d]thiazol-2-yl)methyl)carbamoyl)-2,3-dihydro-1H-inden-2-yl)acetic acid] | < 0.3 µM | > 60%
3 | O=C(O)CC1(C(=O)NCc2nc3c(s2)CNCC3)Cc2ccccc2C1 [Example 44, 2-[2-(4,5,6,7-tetrahydrothiazolo[5,4-c]pyridin-2-ylmethylcarbamoyl)indan-2-yl]acetic acid] | 2 to 10 µM | 15 to 30%
4 | CC(C)(C)OC(=O)[C@H](Cc1c[nH]c2ccccc12)NC(=O)C1(CC(=O)O)Cc2ccccc2C1 [Example 47, (S)-2-(2-((1-(tert-butoxy)-3-(1H-indol-3-yl)-1-oxopropan-2-yl)carbamoyl)-2,3-dihydro-1H-inden-2-yl)acetic acid] | < 0.3 µM | > 60%
5 | O=C(O)CC1(C(=O)NCc2cc3ccccc3[nH]2)Cc2ccccc2C1 [Example 29, 2-[2-(1H-indol-2-ylmethylcarbamoyl)indan-2-yl]acetic acid] | < 0.3 µM | 30 to 60%
6 | Cc1ccc2c(c1)CC(CNC(=O)C1(CC(=O)O)Cc3ccccc3C1)O2 (centres unmarked) [Example 7, 2-[2-[(5-methyl-2,3-dihydrobenzofuran-2-yl)methylcarbamoyl]indan-2-yl]acetic acid] | < 0.3 µM | > 60%
7 | C[N+](C)(C)CCc1ccc2nc(CNC(=O)C3(CC(=O)[O-])Cc4ccccc4C3)sc2c1 [Example 96, 2-[2-[[6-[2-(trimethylammonio)ethyl]-1,3-benzothiazol-2-yl]methylcarbamoyl]indan-2-yl]acetate] | 0.3 to 2 µM | 30 to 60%
8 | Cn1cc(CNC(=O)C2(CC(=O)O)Cc3ccccc3C2)cn1 [Example 3, 2-[2-[(1-methylpyrazol-4-yl)methylcarbamoyl]-indan-2-yl]acetic acid] | 2 to 10 µM | 30 to 60%
9 | Cc1cccc2sc(CNC(=O)C3(CC(=O)O)Cc4ccccc4C3)nc12 [Example 65, 2-(2-(((4-methylbenzo[d]thiazol-2-yl)methyl)carbamoyl)-2,3-dihydro-1H-inden-2-yl)acetic acid] | < 0.3 µM | > 60%
10 | O=C(O)CC1(C(=O)NCCc2nc3ccccc3s2)Cc2ccccc2C1 [Example 22, 2-[2-[2-(1,3-benzothiazol-2-yl)ethylcarbamoyl]indan-2-yl]acetic acid] | 2 to 10 µM | 15 to 30%
11 | O=C(O)CC1(C(=O)NCc2nc3cc(O)ccc3s2)Cc2ccccc2C1 [Example 130, 2-[2-[(5-hydroxy-1,3-benzothiazol-2-yl)methylcarbamoyl]indan-2-yl]acetic acid] | < 0.3 µM | > 60%
12 | NCc1nnc([C@H](Cc2c[nH]c3ccccc23)NC(=O)C2(CC(=O)O)Cc3ccccc3C2)o1 [Example 118, (S)-2-(2-((1-(5-(aminomethyl)-1,3,4-oxadiazol-2-yl)-2-(1H-indol-3-yl)ethyl)carbamoyl)-2,3-dihydro-1H-inden-2-yl)acetic acid] | < 0.3 µM | > 60%
13 | NC/C=C/c1ccc2nc(CNC(=O)C3(CC(=O)O)Cc4ccccc4C3)sc2c1 [Example 39, 2-[2-[[6-[(E)-3-aminoprop-1-enyl]-1,3-benzothiazol-2-yl]methylcarbamoyl]indan-2-yl]acetic acid] | < 0.3 µM | > 60%
14 | O=C(O)CC1(C(=O)NCc2nc3c(I)cccc3s2)Cc2ccccc2C1 [Example 63, 2-(2-(((4-iodobenzo[d]thiazol-2-yl)methyl)carbamoyl)-2,3-dihydro-1H-inden-2-yl)acetic acid] | < 0.3 µM | > 60%
15 | CN(C)CCOc1ccc2nc(CNC(=O)C3(CC(=O)O)Cc4ccccc4C3)sc2c1 [Example 110, 2-[2-[[6-[2-(dimethylamino)ethoxy]-1,3-benzothiazol-2-yl]methylcarbamoyl]indan-2-yl]acetic acid] | 0.3 to 2 µM | 30 to 60%
16 | CN1CCc2nc(CNC(=O)C3(CC(=O)O)Cc4ccccc4C3)sc2C1 [Example 129, 2-[2-[(5-methyl-6,7-dihydro-4H-thiazolo[5,4-c]pyridin-2-yl)methylcarbamoyl]indan-2-yl]acetic acid] | 0.3 to 2 µM | 30 to 60%

Row | Compound | Ki [1] | inhibition at 50 µM [2]
17 | O=C(O)CC1(C(=O)NCc2cc3cc(Br)ccc3o2)Cc2ccccc2C1 [Example 18, 2-[2-[(5-bromobenzofuran-2-yl)methylcarbamoyl]indan-2-yl]acetic acid] | < 0.3 µM | > 60%
18 | CN(C)CC#Cc1ccc2sc(CNC(=O)C3(CC(=O)O)Cc4ccccc4C3)nc2c1 [Example 88, 2-[2-[[5-[3-(dimethylamino)prop-1-ynyl]-1,3-benzothiazol-2-yl]methylcarbamoyl]indan-2-yl]acetic acid] | < 0.3 µM | > 60%
19 | Cn1c(CNC(=O)C2(CC(=O)O)Cc3ccccc3C2)cc2ccccc21 [Example 9, 2-[2-[(1-methylindol-2-yl)methylcarbamoyl]indan-2-yl]acetic acid] | < 0.3 µM | > 60%
20 | CN(C)C[C@H]1C[C@H](c2ccc3nc(CNC(=O)C4(CC(=O)O)Cc5ccccc5C4)sc3c2)C1 [Example 91, 2-(2-(((6-((1 r,3r)-3-((dimethylamino)methyl)cyclobutyl)benzo[d]thiazol-2-yl)methyl)carbamoyl)-2,3-dihydro-1H-inden-2-yl)acetic acid] | < 0.3 µM | > 60%
21 | C[N+]1(C)CCN(c2ccc3nc(CNC(=O)C4(CC(=O)O)Cc5ccccc5C4)sc3c2)CC1 [Example 43, 2-[2-[[6-(4,4-dimethylpiperazin-4-ium-1-yl)-1,3-benzothiazol-2-yl]methylcarbamoyl]indan-2-yl]acetic acid] | 0.3 to 2 µM | 30 to 60%
22 | CN(C)CCc1ccc2nc(CNC(=O)C3(CC(=O)O)Cc4ccccc4C3)sc2c1 [Example 95, 2-[2-[[6-[2-(dimethylamino)ethyl]-1,3-benzothiazol-2-yl]methylcarbamoyl]indan-2-yl]acetic acid] | 0.3 to 2 µM | 30 to 60%
23 | C[N+](C)(C)C[C@H]1C[C@@H](c2ccc3nc(CNC(=O)C4(CC(=O)[O-])Cc5ccccc5C4)sc3c2)C1 [Example 94, 2-[2-[[6-[(1s,3s)-3-[(trimethylammonio)methyl]cyclobutyl]-1,3-benzothiazol-2-yl]methylcarbamoyl]indan-2-yl]acetate] | < 0.3 µM | > 60%
24 | O=C(O)CC1(C(=O)N[C@@H](Cc2c[nH]c3ccccc23)C(=O)O)Cc2ccccc2C1 [Example 50, (2-(carboxymethyl)-2,3-dihydro-1H-indene-2-carbonyl)-L-tryptophan] | < 0.3 µM | > 60%
25 | O=C(O)CC1(C(=O)NCc2nc3cnccc3s2)Cc2ccccc2C1 [Example 127, 2-[2-(thiazolo[4,5-c]pyridin-2-ylmethylcarbamoyl)indan-2-yl]acetic acid] | 0.3 to 2 µM | > 60%
26 | Cc1nnc([C@H](Cc2c[nH]c3ccccc23)NC(=O)C2(CC(=O)O)Cc3ccccc3C2)o1 [Example 117, (S)-2-(2-((2-(1H-indol-3-yl)-1-(5-methyl-1,3,4-oxadiazol-2-yl)ethyl)carbamoyl)-2,3-dihydro-1H-inden-2-yl)acetic acid] | 0.3 to 2 µM | > 60%
27 | O=C(O)CC1(C(=O)NCCc2cc3ccccc3o2)Cc2ccccc2C1 [Example 19, 2-[2-[2-(benzofuran-2-yl)ethylcarbamoyl]indan-2-yl]acetic acid] | 2 to 10 µM | 15 to 30%
28 | CCOc1cccc2sc(CNC(=O)C3(CC(=O)O)Cc4ccccc4C3)nc12 [Example 64, 2-(2-(((4-ethoxybenzo[d]thiazol-2-yl)methyl)carbamoyl)-2,3-dihydro-1H-inden-2-yl)acetic acid] | 0.3 to 2 µM | > 60%
29 | NCC1CN(c2ccc3nc(CNC(=O)C4(CC(=O)O)Cc5ccccc5C4)sc3c2)C1 [Example 99, 2-[2-[[6-[3-(aminomethyl)azetidin-1-yl]-1,3-benzothiazol-2-yl]methylcarbamoyl]indan-2-yl]acetic acid] | < 0.3 µM | > 60%
30 | C[N+](C)(C)CCCc1ccc2nc(CNC(=O)C3(CC(=O)O)Cc4ccccc4C3)sc2c1 [Example 37, 3-[2-[[[2-(carboxymethyl)indane-2-carbonyl]amino]methyl]-1,3-benzothiazol-6-yl]propyl-trimethyl-ammonium] | 0.3 to 2 µM | > 60%
31 | CN(C)CC#Cc1ccc2nc(CNC(=O)C3(CC(=O)O)Cc4ccccc4C3)sc2c1 [Example 35, 2-[2-[[6-[3-(dimethylamino)prop-1-ynyl]-1,3-benzothiazol-2-yl]methylcarbamoyl]indan-2-yl]acetic acid] | < 0.3 µM | > 60%
